Reference: publication PMC7287670, “Tyrosinase Inhibition and Kinetic Details of Puerol A Having But-2-Enolide Structure from Amorpha fruticosa” (Molecules, 2020)
Like-named read-outs stand apart in the source and are kept apart here.

Legend:
[1] = target: T1, Mushroom tyrosinase (monophenolase) (Agaricus bisporus, UniProt C7FF04); test: Mushroom tyrosinase monophenolase inhibition (L-tyrosine as substrate, 475 nm); type: biochemical; settings: for IC50: substrate L-tyrosine; for L-Tyrosine Inhibition Mode: Lineweaver–Burk plot
T1 construct: purchased Sigma-Aldrich Co., St. Louis, MO, USA
T1 sequence (C7FF04 1-392): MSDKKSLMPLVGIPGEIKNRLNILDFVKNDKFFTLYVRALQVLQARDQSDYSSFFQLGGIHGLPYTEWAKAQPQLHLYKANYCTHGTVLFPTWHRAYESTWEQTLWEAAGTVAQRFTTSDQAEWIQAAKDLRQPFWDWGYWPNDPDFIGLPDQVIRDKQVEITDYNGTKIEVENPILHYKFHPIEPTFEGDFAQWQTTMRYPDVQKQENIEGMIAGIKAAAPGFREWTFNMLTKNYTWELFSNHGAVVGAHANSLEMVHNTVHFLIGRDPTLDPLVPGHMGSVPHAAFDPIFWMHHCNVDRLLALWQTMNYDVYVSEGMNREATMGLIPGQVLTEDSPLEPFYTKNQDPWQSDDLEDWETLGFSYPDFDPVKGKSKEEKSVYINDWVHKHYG
Description: (§1) Mushroom tyrosinase (EC 1. 14. 18. 1) (Sigma-Aldrich Co., St. Louis, MO, USA) activity was performed in accordance with the previously described method with subtle modification, using L-tyrosine and L-3,4-dihydroxylphenylalanine (L-DOPA) for monophenolase and diphenolase as substrates, respectively. Two hundred sixty units/mL of the tyrosinase stock solution was prepared at optimum pH 6.8 (0.05 M phosphate buffer). The inhibitors were initially dissolved in DMSO and diluted to several concentrations. […] Then, 10 μL of the enzyme was added to the mixture. Subsequent absorbance of DOPA chrome formation was recorded at 475 nm by means of an UV-Vis spectrophotometer (SpectraMax M3, Molecular Devices, San Jose, CA, USA) in a 96-well microplate at 30 °C. Three separate determinations were conducted for each assay.
(§2) The characteristic of tyrosinase inhibition was represented by Lineweaver−Burk double-reciprocal-plot and Dixon plot at specified concentrations of the substrates and inhibitors, respectively.

[2] = target: T2, Mushroom tyrosinase (diphenolase) (Agaricus bisporus, UniProt C7FF04); test: Mushroom tyrosinase diphenolase inhibition (L-DOPA as substrate, 475 nm); type: biochemical; settings: for IC50: substrate L-DOPA
T2 construct: purchased Sigma-Aldrich Co., St. Louis, MO, USA
T2 sequence (C7FF04 1-392): as above
Description: as §1, §2

tyrosinase [3] = target: T3, tyrosinase (Agaricus bisporus, UniProt C7FF04); test: HPLC analysis of tyrosinase inhibition with N-acetyl-L-tyrosine as substrate; type: biochemical; settings: HPLC at 275 nm
T3 construct: purchased Sigma-Aldrich Co., St. Louis, MO, USA
T3 sequence (C7FF04 1-392): as above
Description: The HPLC analysis of tyrosinase inhibition was carried out by giving minor alterations in the previous procedure with N-acetyl-L-tyrosine as a substrate. The 4.5 mM of the substrate was prepared in the 50 mM phosphate buffer (pH 6.8). Then, 670 units/mL tyrosinase (Sigma-Aldrich Co., St. Louis, MO, USA) solution and several concentrations of the inhibitor solution were arranged. The N-acetyl-L-tyrosine was observed on 275 nm with 4.6 min of tR by eluting the mobile phase consisting of A (H2O) and B (acetonitrile, ACN), with the following isocratic condition: 0–8 min and A/B = 90:10 (v/v). After 20 μL of the sample solution was subjected to the HPLC (Pack ODS-AQ C18 column, YMC) system, the reactions were measured every 15 min. All procedures were carried out at room temperature.

[4] = test system: B16F10 mouse melanoma cells; test: L-DOPA oxidation (cellular tyrosinase) in α-MSH-treated B16F10 melanoma cells; type: cell-based; settings: B16 cells, 48 h in the presence of α-MSH
Description: (§3) The B16F10 mouse melanoma cell (American Type of Culture Collection, VA, USA) were cultured as previously reported. Briefly, the cells were incubated in DMEM containing 10% fetal bovine serum and 1% penicillin/streptomycin (Sigma–Aldrich, St. Louis, MO, USA) at 37 °C in a 5% CO2 humidified incubator.
B16F10 mouse melanoma cells were seeded on to 6-well plates at a density of 1 × 10^5 cells per well and cultured for 24 h. Then, the cells were treated with α-MSH (1 μM) in the presence or absence of different concentrations of compound 1, followed by incubation for 48 h. The incubated cells were collected and dissolved with 1% Triton X-100 solution for 1 h on ice. Then, the cells were cultured for 4 h with 100 μL (2 mg/mL) L-DOPA in a 5% CO2 humidifying incubator at 37 °C condition. After that, by using a microplate reader (Bio-Rad), absorbance at 490 nm was measured.

[5] = test system: B16F10 mouse melanoma cells; test: Melanin content in α-MSH-stimulated B16F10 melanoma cells; type: cell-based; settings: B16 cells, 48 h in the presence of α-MSH, read-out: Melanin Synthesis IC50
Description: as §3
For the analysis of melanin content accumulated in the cytosol, B16F10 mouse melanoma cells were seeded on to six-well plates at a density of 1 × 10^5 cells per well, and cultured for 24 h. Then, the cells were treated with 1 μM of α-MSH (Sigma–Aldrich, St. Louis, MO, USA) in the presence or absence of different concentrations of compound 1. Thereafter, the cells were collected using trypsin-EDTA (Lonza, Walkersville, MD, USA) and dissolved in 1 N NaOH, including 10% DMSO at 65 °C for 24 h. The melanin content was determined at 415 nm by a Bio-Rad microplate reader.

[6] = test system: B16F10 mouse melanoma cells; test: Cell viability assay (MTT) in B16F10 melanoma cells; type: cell-based; settings: B16 cells, 48 h
Description: as §3
The cell viability assay of the B16F10 mouse melanoma cells were conducted with subtle variation in previous methods. The cells were incubated in 96-well plates overnight. […] After incubation, 5 μg/mL of MTT solution was added to the each well and the cells were incubated for 3 h. After the medium was removed, the cells were treated with dimethyl sulfoxide (DMSO) and cultured at room temperature for 20 min. The absorbance at 595 nm was measured on a Bio-Rad microplate reader (Hercules, CA, USA).

tyrosinase [7] = target: T3, tyrosinase; test: Fluorescence quenching measurement of binding affinity to tyrosinase
Description: To measure fluorescence from the tyrosinase enzyme, 10 μL of 260 unit/mL enzyme solution with 165 μL of phosphate buffer (0.05 M) were added into 96-well black immunoplates. Afterward, 5 μL of various concentrations (2.5–20 μM) of inhibitor was added into each well. All fluorescence spectra were obtained by a SpectraMax M3 spectrophotometer (Molecular Devices, San Jose, CA, USA). The spectra were measured from 300 to 400 nm with emission slits regulated to 2.0 nm, and the excitation wavelength was 265 nm. The Stern–Volmer quenching constant (KSV) was estimated using Equation (6). All experiments were carried out in triplicate, and the mean values were calculated. (6) […] where F0 and F are the fluorescence intensities in the absence and presence of quencher (Q). KSV is the Stern–Volmer quenching constant [L M^−1]. For static quenching, the correlation between the fluorescence intensity and the concentration of the quencher for the series of reactions can be expressed by Equation (7). (7) log[(F0 − F)/F]=logKA+nlog[Q]f
F0 and F are the fluorescence intensities in the absence and presence of inhibitor; KA is the binding constant; n is the number of binding sites of the enzyme; Qf is the concentration of inhibitor [24].

[8] = target: T4, tyrosinase (monophenolase) (Agaricus bisporus, UniProt C7FF04); test: Time-dependent assays and progress curves (slow-binding kinetics, lag phase); type: biochemical, mushroom; settings: for Type of inhibitor (time-dependent inhibition): L-tyrosine, preincubation and progress curves
T4 construct: purchased Sigma-Aldrich Co., St. Louis, MO, USA
T4 sequence (C7FF04 1-392): as above
Description: The assays were carried out using tyrosinase (260 units) and L-tyrosine as a substrate of monophenolase in 0.25 M phosphate buffer (pH 6.8) at 30 °C. The enzyme activity was recorded sequentially for 30 min by a UV spectrophotometer. To evaluate the time-dependent inhibition and the kinetic parameters of tyrosinase, progress curves with 30 s intervals were measured at different concentrations of the inhibitor and substrate. The data were through the use of Sigma Plot (SPCC Inc., Chicago, IL, USA) as a nonlinear regression program to provide the respective parameters for each curve; A (absorbance at 475 nm), vi (initial rate), vss (steady-state rate), kobs (apparent first-order rate constant for the transition from vi to vss), and Kiapp (apparent Ki) in accordance with the following Equations (2)–(5). (2) A=vsst+vi − vss1 −exp−kobst/kobs (3) v/v0=exp (−kobst) (4) kobs=k4 (1+[I]/Kiapp) (5) Kiapp=k4/k3
The value of −kobs was estimated by a slope of the straight line from the plot of the natural log of the residual enzyme activity vs. the preincubation time. The plot of kobs vs. the concentration of inhibitors gave the values of k3, k4, and Kiapp on the basis of Morrison and Walsh’s method.

[9] = pH 6.8, 30 °C, read-out: L-Tyrosine IC50 Value (monophenolase)
[10] = pH 6.8, 30 °C, read-out: L-DOPA IC50 Value (diphenolase)
[11] = slow-binding, L-tyrosine as substrate

O=C1C=C(c2ccc(O)cc2O[C@@H]2O[C@H](CO)[C@@H](O)[C@H](O)[C@H]2O)C(Cc2ccc(O)cc2)O1 (stereo partly shown) [Compound 2, Kuzubutenolide A]
IC50 [1, 9]: > 200 µM | IC50 ([1]; read-out: IC50 monophenolase): 1500 µM | IC50 [2, 10]: > 200 µM | IC50 ([2]; read-out: IC50 diphenolase): 1900 µM

O=C1C=C(c2ccc(O)cc2O)C(Cc2ccc(O)cc2)O1 (stereo not shown) [Compound 1, Puerol A]
oxidation of N-acetyl-L-tyrosine blocked (tyrosinase [3]; 5 μM): 56% | oxidation of N-acetyl-L-tyrosine blocked (tyrosinase [3]; 10 μM): 86% | oxidation of N-acetyl-L-tyrosine blocked (tyrosinase [3]; 20 μM, listed as Puerol A): completely inhibited | oxidation of N-acetyl-L-tyrosine blocked (tyrosinase [3]; 20 μM, listed as puerol A): 95% | IC50 [4]: 23.9 ± 1.4 µM | Reversibility of inhibition ([1]; initial velocity vs tyrosinase and inhibitor concentrations): reversible inhibitor | Ki ([1]; monophenolase, Dixon plot): 0.87 µM | L-Tyrosine Inhibition Mode ([1]; monophenolase): Competitive | L-Tyrosine Inhibition Mode ([1]; monophenolase, listed as puerol A): competitively | IC50 [1, 9]: 2.2 ± 0.2 µM | IC50 [5]: 11.4 ± 1.2 µM | Cytotoxicity LD50 [6]: 137.8 ± 1.2 µM | n (number of binding sites) (tyrosinase [7]; from log[(F0 − F)/F] plot): one | KSV (Stern–Volmer quenching constant) (tyrosinase [7]; inhibitor 2.5–20 μM, excitation 265 nm, emission 300–400 nm): 145000 L/mol | Ki ([2]; diphenolase, Dixon plot): 1.95 µM | L-DOPA Inhibition Mode ([2]; diphenolase, Lineweaver–Burk plot): competitive inhibition mode | IC50 [2, 10]: 3.88 ± 0.3 µM | Ki ([8]; Kiapp = k4/k3): 0.107 µM | Type of inhibitor (time-dependent inhibition) [8]: simple, reversible, slow-binding inhibitor | Type of inhibitor (time-dependent inhibition) ([8]; listed as Puerol A): reversible, competitive, simple slow-binding inhibitor | Type of inhibitor (time-dependent inhibition) ([8]; listed as puerol A): competitive inhibitor and reversible, simple slow-binding inhibitor | lag phase of L-tyrosine oxidation ([8]; inhibitor 0.5–8.0 μM, 60 s without inhibitor): up to 600 s | k3 [8, 11]: 465 M⁻¹ s⁻¹ | k4 [8, 11]: 0.003 min⁻¹

O=c1cc(CO)occ1O [Kojic acid, reference compound]
IC50 [4]: > 500 µM | IC50 [5]: > 500 µM | Cytotoxicity LD50 [6]: >500 µM
